# ChEMBL document CHEMBL5465560, “Selectivity Literature for EUbOPEN Chemogenomic Library” (2024)
# Columns and labels:
# [1] = molecular target: T1, Serine/threonine-protein kinase PLK4 (Homo sapiens) (UniProt O00444); assay: Selectivity interaction (KinomeScan (DiscoverX)) EUB0000655a PLK4; details: at 10 µM
# T1 sequence (whole entry): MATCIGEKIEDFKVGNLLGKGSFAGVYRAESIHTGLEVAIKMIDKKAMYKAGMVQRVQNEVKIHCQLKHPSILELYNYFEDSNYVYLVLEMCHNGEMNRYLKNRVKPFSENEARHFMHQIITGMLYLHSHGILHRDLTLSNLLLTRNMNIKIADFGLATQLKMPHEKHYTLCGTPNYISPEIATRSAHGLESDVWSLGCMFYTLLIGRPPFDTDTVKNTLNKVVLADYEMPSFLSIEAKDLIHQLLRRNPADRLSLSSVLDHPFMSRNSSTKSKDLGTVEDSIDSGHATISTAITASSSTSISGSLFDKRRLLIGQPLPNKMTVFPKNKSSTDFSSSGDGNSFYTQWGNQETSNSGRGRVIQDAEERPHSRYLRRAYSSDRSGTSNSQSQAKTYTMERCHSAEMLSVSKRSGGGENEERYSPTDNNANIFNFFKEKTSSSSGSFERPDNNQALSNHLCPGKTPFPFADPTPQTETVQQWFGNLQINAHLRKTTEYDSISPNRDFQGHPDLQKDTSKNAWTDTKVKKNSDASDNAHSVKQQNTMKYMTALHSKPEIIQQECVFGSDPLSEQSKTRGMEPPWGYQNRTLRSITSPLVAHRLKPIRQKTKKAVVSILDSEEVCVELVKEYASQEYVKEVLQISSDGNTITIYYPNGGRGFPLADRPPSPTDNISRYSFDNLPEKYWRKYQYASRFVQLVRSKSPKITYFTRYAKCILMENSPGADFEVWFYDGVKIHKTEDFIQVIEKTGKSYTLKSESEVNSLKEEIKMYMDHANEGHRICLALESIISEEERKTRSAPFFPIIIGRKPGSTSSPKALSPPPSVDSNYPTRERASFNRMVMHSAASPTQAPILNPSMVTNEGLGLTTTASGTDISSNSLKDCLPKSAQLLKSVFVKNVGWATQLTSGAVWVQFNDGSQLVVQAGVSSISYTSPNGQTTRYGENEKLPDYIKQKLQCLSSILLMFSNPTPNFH
# D(1A) dopamine receptor = D(1A) dopamine receptor (Homo sapiens, UniProt P21728); assay: Selectivity interaction (GPCR panel (PDSP screen)) EUB0001079a DRD1; details: at 10 µM
# Sequence of D(1A) dopamine receptor (P21728 whole entry): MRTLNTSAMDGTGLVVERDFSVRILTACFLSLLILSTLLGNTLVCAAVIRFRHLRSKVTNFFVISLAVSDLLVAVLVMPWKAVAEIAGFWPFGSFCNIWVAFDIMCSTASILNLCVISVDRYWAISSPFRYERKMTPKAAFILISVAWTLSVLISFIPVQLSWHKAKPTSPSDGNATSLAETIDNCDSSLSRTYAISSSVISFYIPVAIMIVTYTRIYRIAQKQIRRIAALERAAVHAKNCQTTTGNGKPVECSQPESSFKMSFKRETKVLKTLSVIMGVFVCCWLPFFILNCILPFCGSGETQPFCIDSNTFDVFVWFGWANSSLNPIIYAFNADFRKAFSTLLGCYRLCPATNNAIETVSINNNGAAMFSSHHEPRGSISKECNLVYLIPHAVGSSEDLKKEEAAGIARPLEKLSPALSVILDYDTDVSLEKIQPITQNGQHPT
# [2] = molecular target: Tyrosine-protein kinase ABL2 (Homo sapiens, UniProt P42684); assay: Selectivity interaction (Millipore kinase profiler) EUB0000124b ABL2; details: at 10 µM
# Sequence of Tyrosine-protein kinase ABL2 (P42684 whole entry, canonical isoform): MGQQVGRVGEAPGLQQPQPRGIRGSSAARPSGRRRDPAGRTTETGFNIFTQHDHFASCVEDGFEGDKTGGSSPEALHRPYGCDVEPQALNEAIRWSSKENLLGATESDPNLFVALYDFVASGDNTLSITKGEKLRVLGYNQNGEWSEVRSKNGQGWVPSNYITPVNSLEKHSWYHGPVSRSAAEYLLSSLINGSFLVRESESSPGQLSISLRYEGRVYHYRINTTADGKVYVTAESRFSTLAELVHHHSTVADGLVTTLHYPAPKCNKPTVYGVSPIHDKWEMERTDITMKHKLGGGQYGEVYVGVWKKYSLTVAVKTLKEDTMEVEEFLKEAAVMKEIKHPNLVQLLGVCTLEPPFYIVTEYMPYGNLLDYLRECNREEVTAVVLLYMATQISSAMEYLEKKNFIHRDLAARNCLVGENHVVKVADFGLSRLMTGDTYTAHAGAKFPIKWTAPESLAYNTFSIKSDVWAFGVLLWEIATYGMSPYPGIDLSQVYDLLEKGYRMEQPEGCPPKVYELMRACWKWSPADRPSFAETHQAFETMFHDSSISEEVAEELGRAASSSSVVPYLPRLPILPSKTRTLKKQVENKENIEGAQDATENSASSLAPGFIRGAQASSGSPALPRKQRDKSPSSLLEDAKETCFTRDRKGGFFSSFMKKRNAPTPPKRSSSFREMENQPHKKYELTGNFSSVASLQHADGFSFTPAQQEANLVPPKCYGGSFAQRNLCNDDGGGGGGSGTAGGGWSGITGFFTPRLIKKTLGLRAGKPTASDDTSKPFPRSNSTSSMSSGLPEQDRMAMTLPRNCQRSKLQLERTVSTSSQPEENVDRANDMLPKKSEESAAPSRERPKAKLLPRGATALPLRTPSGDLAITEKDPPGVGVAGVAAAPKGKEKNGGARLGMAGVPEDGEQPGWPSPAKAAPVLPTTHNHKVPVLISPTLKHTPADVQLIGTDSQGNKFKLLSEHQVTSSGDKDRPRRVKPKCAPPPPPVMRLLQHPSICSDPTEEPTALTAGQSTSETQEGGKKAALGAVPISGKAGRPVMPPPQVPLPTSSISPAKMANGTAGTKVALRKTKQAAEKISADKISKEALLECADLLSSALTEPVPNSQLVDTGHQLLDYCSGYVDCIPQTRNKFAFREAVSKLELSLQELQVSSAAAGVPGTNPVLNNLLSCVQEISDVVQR
# [3] = molecular target: T2, Casein kinase I isoform alpha-like (Homo sapiens) (UniProt Q8N752); assay: Selectivity interaction (KinomeScan (DiscoverX)) EUB0000618a CSNK1A1L; details: at 10 µM
# T2 sequence (whole entry): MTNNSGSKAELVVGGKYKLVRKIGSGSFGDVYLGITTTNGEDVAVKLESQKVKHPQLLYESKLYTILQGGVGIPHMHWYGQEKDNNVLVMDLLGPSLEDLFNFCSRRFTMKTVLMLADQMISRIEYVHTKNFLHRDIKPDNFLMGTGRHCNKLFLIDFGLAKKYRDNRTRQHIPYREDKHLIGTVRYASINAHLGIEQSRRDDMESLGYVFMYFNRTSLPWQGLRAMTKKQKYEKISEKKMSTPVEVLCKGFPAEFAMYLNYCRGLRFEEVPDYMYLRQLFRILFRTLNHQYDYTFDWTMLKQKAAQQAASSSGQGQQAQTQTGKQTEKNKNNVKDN
# [4] = molecular target: T3, Testis-specific serine/threonine-protein kinase 1 (Homo sapiens) (UniProt Q9BXA7); assay: Selectivity interaction (KinomeScan (DiscoverX)) EUB0000618a TSSK1A; details: at 10 µM
# T3 sequence (whole entry): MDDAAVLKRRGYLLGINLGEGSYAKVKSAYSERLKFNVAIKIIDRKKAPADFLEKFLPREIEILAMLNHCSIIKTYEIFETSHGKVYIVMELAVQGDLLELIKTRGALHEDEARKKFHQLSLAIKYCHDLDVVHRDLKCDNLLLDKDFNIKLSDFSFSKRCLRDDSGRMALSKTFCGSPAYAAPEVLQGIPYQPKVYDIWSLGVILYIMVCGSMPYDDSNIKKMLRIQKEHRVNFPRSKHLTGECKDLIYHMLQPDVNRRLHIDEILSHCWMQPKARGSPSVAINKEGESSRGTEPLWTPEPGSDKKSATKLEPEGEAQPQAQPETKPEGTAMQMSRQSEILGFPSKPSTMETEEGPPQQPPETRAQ
# [5] = molecular target: T3, Testis-specific serine/threonine-protein kinase 1 (Homo sapiens); assay: Selectivity interaction (KinomeScan (DiscoverX)) EUB0000607a TSSK1A; details: at 10 µM
# [6] = molecular target: T4, Mitogen-activated protein kinase kinase kinase kinase 2 (Homo sapiens) (UniProt Q12851); assay: Selectivity interaction (KinomeScan (DiscoverX)) EUB0001619a MAP4K2; details: at 1 µM
# T4 sequence (whole entry): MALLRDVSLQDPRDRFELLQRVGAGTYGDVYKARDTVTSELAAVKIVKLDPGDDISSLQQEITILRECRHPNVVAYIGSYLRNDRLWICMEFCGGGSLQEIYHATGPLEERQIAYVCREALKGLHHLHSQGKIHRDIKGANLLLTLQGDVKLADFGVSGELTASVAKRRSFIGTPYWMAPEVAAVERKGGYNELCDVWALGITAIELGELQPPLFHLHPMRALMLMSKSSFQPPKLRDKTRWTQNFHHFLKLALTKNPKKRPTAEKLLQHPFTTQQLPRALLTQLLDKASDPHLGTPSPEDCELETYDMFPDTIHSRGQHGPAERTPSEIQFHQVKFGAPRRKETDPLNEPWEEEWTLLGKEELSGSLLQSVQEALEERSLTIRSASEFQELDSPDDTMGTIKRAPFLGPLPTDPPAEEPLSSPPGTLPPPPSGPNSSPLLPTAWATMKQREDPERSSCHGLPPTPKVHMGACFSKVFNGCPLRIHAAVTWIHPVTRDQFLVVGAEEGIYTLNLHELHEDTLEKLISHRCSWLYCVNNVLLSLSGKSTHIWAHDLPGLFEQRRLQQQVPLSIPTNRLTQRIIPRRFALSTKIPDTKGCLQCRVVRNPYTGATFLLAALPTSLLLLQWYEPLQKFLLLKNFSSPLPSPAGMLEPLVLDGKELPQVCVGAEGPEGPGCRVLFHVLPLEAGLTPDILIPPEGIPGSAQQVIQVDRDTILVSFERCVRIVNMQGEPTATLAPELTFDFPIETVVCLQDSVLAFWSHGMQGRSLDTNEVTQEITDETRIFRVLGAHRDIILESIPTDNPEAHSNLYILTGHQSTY
# [7] = molecular target: Serine/threonine-protein kinase Nek6 (Homo sapiens) (UniProt Q9HC98); assay: Selectivity interaction (KinomeScan (DiscoverX)) EUB0000045b NEK6
# Sequence of Serine/threonine-protein kinase Nek6 (Homo sapiens) (Q9HC98 whole entry): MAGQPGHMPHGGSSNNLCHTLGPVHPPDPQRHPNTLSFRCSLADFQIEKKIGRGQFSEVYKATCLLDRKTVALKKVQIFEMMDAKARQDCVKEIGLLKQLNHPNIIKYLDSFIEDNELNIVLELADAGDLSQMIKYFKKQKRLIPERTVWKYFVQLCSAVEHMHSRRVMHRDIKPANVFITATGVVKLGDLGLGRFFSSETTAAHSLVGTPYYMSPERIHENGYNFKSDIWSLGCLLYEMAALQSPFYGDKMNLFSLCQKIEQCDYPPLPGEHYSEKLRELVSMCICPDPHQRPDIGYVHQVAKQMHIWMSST
# [8] = molecular target: Casein kinase II subunit alpha' (Homo sapiens) (UniProt P19784); details: at 10 µM
# Sequence of Casein kinase II subunit alpha' (Homo sapiens) (P19784 whole entry, looked up): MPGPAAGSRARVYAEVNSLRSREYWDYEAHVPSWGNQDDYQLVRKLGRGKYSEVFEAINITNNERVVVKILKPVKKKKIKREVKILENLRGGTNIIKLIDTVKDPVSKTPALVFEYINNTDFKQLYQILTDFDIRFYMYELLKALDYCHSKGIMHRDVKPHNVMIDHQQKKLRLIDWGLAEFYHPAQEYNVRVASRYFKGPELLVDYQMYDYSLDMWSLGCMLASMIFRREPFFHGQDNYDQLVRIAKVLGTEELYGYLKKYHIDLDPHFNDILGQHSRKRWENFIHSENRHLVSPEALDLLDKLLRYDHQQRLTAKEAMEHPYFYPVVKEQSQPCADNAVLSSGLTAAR
# [9] = molecular target: Ribosomal protein S6 kinase alpha-2 (Homo sapiens) (UniProt Q15349); assay: Selectivity interaction (KinomeScan (DiscoverX)) EUB0000092b RPS6KA2; details: at 10 µM
# Sequence of Ribosomal protein S6 kinase alpha-2 (Homo sapiens) (Q15349 whole entry): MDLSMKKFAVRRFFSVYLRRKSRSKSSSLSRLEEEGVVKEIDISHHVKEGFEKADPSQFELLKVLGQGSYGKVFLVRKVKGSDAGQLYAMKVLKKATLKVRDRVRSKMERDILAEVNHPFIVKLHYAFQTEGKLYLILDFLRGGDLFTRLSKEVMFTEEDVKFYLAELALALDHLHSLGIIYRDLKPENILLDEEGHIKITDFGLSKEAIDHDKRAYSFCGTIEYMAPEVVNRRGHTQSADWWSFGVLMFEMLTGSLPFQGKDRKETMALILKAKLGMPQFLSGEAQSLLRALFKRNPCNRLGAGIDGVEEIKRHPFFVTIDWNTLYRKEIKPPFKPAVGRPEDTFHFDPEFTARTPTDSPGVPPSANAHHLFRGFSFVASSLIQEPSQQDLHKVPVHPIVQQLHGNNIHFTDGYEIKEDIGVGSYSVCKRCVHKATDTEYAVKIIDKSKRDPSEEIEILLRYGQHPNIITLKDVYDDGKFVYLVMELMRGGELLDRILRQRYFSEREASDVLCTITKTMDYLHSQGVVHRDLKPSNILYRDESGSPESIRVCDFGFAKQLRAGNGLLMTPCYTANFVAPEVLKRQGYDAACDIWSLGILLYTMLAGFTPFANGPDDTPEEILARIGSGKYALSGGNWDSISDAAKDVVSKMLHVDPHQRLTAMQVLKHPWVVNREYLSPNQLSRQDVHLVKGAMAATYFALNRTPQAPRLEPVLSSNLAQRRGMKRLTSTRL
structure (smiles),measurement,setting,value
CN(C)CCOc1ccc(-c2nc(-c3ccncc3)c(-c3ccc4c(c3)CC/C4=N\O)[nH]2)cc1,% of control,[1],83%
Nc1cnc(N2CCc3cc(S(=O)(=O)Nc4c(F)cc(Cl)cc4F)cc(N4CCCC4=O)c32)nc1 [TP-020n],% of inhibition,D(1A) dopamine receptor,-8.35%
CC(=O)Nc1cccc(-n2c(=O)n(C3CC3)c(=O)c3c(Nc4ccc(I)cc4F)n(C)c(=O)c(C)c32)c1,% of control,[2],111%
O[C@H]1CC[C@H](Nc2ncc3nc(Nc4c(F)cc(F)cc4F)n([C@H]4CCOC4)c3n2)CC1,% of control,[3],55%
same,% of control,[4],100%
CNC(=O)Nc1ccc(-c2nc(N3CC4CCC(C3)O4)c3cnn(C4CCC5(CC4)OCCO5)c3n2)cc1,% of control,[5],100%
N#Cc1cccc(-c2c[nH]c3ncnc(N4CCOCC4)c23)c1,% of control,[6],3.4%
C=CC(=O)Nc1cc(-n2c(=O)ccc3cnc4ccc(-c5ccc(NS(C)(=O)=O)cc5)cc4c32)ccc1C,% of control,[7]; at 1 µM,100%
same,% of control,[7]; at 10 µM,74%
Cc1cc([C@@H](C)Nc2ccccc2C(=O)O)c2nc(N3CCOCC3)cc(=O)n2c1 [AZD-6482],% of control,[8],100%
CCC(=O)N1CCN(c2ccc(-n3c(=O)ccc4cnc5ccc(-c6cnc7ccccc7c6)cc5c43)cc2C(F)(F)F)CC1,% of control,[9],100%
